These results are taken from patent US5795907A, “Gastin and CCK receptor ligands” (James Black Foundation Limited, priority 1994, dated 1998).

In one test the target is T1, gastrin (Rattus norvegicus, UniProt P30553).
T1 construct: The stomach was lowered into a jacketed organ bath containing 40 ml of buffered solution; from tissue; host or cells: isolated perfused whole stomach of immature rats (ca. 21 days old)
T1 sequence (P30553 1-452): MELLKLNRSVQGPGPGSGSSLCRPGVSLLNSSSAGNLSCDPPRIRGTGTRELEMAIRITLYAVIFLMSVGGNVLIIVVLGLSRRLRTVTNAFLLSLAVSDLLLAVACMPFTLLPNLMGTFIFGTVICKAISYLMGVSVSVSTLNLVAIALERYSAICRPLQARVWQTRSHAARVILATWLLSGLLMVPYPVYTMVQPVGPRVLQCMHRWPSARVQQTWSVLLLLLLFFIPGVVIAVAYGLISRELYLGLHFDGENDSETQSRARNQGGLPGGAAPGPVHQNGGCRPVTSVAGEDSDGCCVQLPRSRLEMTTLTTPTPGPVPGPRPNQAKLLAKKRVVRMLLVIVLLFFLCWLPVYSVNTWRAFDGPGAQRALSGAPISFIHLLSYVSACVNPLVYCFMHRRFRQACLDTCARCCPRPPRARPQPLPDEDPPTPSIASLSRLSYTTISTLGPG
Kind of test: gastrin antagonist activity in an immature rat stomach assay (pentagastrin-stimulated acid secretion). Particulars: cumulative pentagastrin dose-response curves after 60 min with drug; for Kb: read-out: Gastrin pKB (converted). A digest of the protocol: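 Isolated lumen-perfused immature rat stomach (33-50 g, ca. 21 days) in 37° organ bath with 3×10^-8 M 5-methylfurmethide; acid secretion read by pH electrode in perfusate. Compound added to serosal bath after 120 min stabilisation; cumulative pentagastrin dose-response curves begun 60 min later and analysed by the Black et al. method.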

For the next test, the target named is T2, CCKA (Cavia porcellus, UniProt Q63931).
T2 construct: The pancreatata were homogenised in 40 ml ice-cold HEPES buffer using a polytron; from tissue; host or cells: pancreas membranes of male Dunkin Hartley guinea-pigs
T2 sequence (Q63931 1-430): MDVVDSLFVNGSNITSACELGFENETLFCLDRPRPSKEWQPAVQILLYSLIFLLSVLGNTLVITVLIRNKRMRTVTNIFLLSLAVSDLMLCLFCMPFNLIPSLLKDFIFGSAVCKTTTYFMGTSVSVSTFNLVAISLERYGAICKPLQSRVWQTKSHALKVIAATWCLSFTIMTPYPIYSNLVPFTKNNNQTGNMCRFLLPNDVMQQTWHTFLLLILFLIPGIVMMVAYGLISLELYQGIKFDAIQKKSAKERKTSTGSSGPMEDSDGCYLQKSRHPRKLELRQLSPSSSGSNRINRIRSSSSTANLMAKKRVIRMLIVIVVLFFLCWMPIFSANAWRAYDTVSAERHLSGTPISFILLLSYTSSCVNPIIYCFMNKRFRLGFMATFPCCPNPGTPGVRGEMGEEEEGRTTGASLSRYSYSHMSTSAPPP
Kind of test: CCKA radioligand binding assay in guinea-pig pancreas membranes ([125I]-CCK8(S)). The note with it: PD134,308 present, 150 minutes at 21±3°; for Ki: read-out: CCKA pKi (converted). A digest of the protocol: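 Male guinea-pig pancreas membranes (1 mg/ml wet tissue in HEPES pH 7.2, suspension containing 0.375 μM PD134,308) were incubated 150 min at 21±3° with [125I]-CCK8(S) ([…] added solution) and competitor. Non-specific binding used 100 nM L-364,718 (added solution). Bound radioligand was measured by GF/B filtration and gamma counting.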

The next test concerns the target T3, CCKB receptor (Mus musculus, UniProt P56481).
T3 construct: The cortex was dissected, weighed and homogenised in 40ml ice-cold buffer; tissue Charles River (supplier of the CD1 mice); host or cells: cerebral cortex membranes of male CD1 mice
T3 sequence (P56481 1-453): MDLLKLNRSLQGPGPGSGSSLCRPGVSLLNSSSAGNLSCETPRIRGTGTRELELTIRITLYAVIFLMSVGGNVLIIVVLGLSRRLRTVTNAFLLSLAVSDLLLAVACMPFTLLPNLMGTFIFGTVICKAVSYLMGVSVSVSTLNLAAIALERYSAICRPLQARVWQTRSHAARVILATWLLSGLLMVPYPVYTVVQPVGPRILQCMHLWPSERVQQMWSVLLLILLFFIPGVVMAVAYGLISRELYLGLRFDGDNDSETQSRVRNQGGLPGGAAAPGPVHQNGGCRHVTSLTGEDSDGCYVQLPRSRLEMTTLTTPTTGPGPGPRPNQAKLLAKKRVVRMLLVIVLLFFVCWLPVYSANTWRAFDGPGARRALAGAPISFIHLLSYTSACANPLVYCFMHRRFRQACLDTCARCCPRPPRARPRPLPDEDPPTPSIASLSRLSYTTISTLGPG
Kind of test: CCKB receptor radioligand binding assay in mouse cortical membranes ([125I]-CCK8S). The note with it: [125I]-CCK8S 200 pM, 150 min at 21±3°; for Ki: read-out: CCKB pKi (converted). The procedure, abridged: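 Cortical membranes from male CD1 mice in HEPES buffer (pH 7.2; NaCl, KCl, MgCl2, EDTA, bacitracin) were incubated with competing compound and [125I]-CCK8S (added as a 200 pM solution) for 150 min at 21±3°. Non-specific binding was defined with L-365,260. Bound tracer was separated by GF/B filtration and counted by gamma counting.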

In the case of `O=C(O)c1cc(NC(=O)[C@H](Cc2ccccc2)NC(=O)c2cc3[nH]ccc3cc2C(=O)NCC23CC4CC(CC(C4)C2)C3)cc(C(=O)O)c1` [Example 26, 6-(1S-(3,5-dicarboxyphenylaminocarbonyl)-2-phenylethylaminocarbonyl)-5-(1-adamantanemethylaminocarbonyl)-indole], on gastrin, the Kb is 0.501 nM. Moreover, the results for the Ki at CCKA and on CCKB receptor were 3160 nM and 12.6 nM, respectively.
In the case of `O=C(O)c1cc(NC(=O)[C@H](Cc2ccc(O)cc2)NC(=O)c2cc3[nH]cnc3cc2C(=O)NCC23CC4CC(CC(C4)C2)C3)cc(C(=O)O)c1` [Example 60, 5-(1S-(3,5-dicarboxyphenylaminocarbonyl)-2-(4-hydroxyphenyl)ethylaminocarbonyl)-6-(1-adamantanemethyaminocarbonyl)-benzimidazole], at gastrin, the Kb was 7.94 nM. In addition, at CCKA, the Ki was 2510 nM. The “CCKB pKi” value at CCKB receptor was found to be 7.8.
As to `O=C(O)c1cc(NC(=O)[C@H](Cc2cccc(F)c2)NC(=O)c2cc3[nH]cnc3cc2C(=O)NCC23CC4CC(CC(C4)C2)C3)cc(C(=O)O)c1` [Example 131, 5-(1S-(3,5-dicarboxyphenylaminocarbonyl)-2-(3-fluorophenyl)ethylaminocarbonyl)-6-(1-adamantanemethylaminocarbonyl)-benzimidazole], at gastrin, the Kb was 0.2 nM. In addition, the Ki at CCKA was 5010 nM; at CCKB receptor, 3.98 nM.
For `O=C(O)c1cc(NC(=O)[C@H](Cc2ccccc2)NC(=O)c2cc3[nH]cnc3cc2C(=O)NCC2CCCCCC2)cc(C(=O)O)c1` [Example 62, 5-(1S-(3,5-dicarboxyphenylaminocarbonyl)-2-phenylethylaminocarbonyl)-6-(1-cycloheptanemethylaminocarbonyl)-benzimidazole] the same measures were 6.31 nM, 3980 nM and 15.8 nM.
“5-(1S-(3,5-dicarboxyphenylaminocarbonyl)-2-phenylethylaminocarbonyl)-6-(1-adamantanemethylaminocarbonyl)-2,3-dihydro-benzofuran [Example 123]”: at gastrin, the “Gastrin pKB” value worked out at 8.5. The “CCKA pKi” value on CCKA came out at 6.3. Moreover, the “CCKB pKi” value at CCKB receptor is reported as 7.9.
For `O=C(NCC12CC3CC(CC(C3)C1)C2)c1cc2[nH]ccc2cc1C(=O)N[C@@H](Cc1ccccc1)C(=O)Nc1cc(NS(=O)(=O)C(F)(F)F)cc(NS(=O)(=O)C(F)(F)F)c1` [Example 93, 5-(1S-(3,5-di-trifluoromethylsulphonylaminophenylaminocarbonyl)-2-phenylethylaminocarbonyl)-6-(1-adamantanemethylaminocarbonyl)-indole] the same measures were 7.7, 5.6 and 8.1.
Consider `COC(=O)c1cc(NC(=O)[C@H](Cc2ccccc2)NC(=O)c2cc3[nH]cnc3cc2C(=O)NCC23CC4CC(CC(C4)C2)C3)cc(C(=O)OC)c1` [Example 81, 5-(1S-(3,5-dimethoxycarbonylphenylaminocarbonyl)-2-phenylethylaminocarbonyl)-6-(1-adamantane-methylaminocarbonyl)-benzimidazole], for which the Kb on gastrin was 126 nM. For the same compound, the Ki at CCKA is 3160 nM; at CCKB receptor it was 794 nM.
`CN(C(=O)c1cc2[nH]cnc2cc1C(=O)NCC12CC3CC(CC(C3)C1)C2)[C@@H](Cc1ccccc1)C(=O)Nc1cc(C(=O)O)cc(C(=O)O)c1` [Example 86, 5-(1S-(3,5-dicarboxyphenylaminocarbonyl)-2-30 phenylethyl-(N-methylamino)-carbonyl)-6-(1-adamantanemethylaminocarbonyl)-benzimidazole]: the Kb on gastrin is 20 nM. Further, the “CCKA pKi” value on CCKA is 5.0. For the same compound, at CCKB receptor, the Ki was 31.6 nM.
As to `Cn1ccc2cc(C(=O)NCC34CC5CC(CC(C5)C3)C4)c(C(=O)N[C@@H](Cc3ccccc3)C(=O)Nc3cc(C(=O)O)cc(C(=O)O)c3)cc21` [Example 37, 6-(1S-(3,5-dicarboxyphenylaminocarbonyl)-2-phenylethylaminocarbonyl)-5-(1-adamantanemethylaminocarbonyl)-N-methyl-indole], on gastrin, the Kb is 3.98 nM. For the same compound, the Ki was 2510 nM at CCKA and 3.98 nM on CCKB receptor.
For the compound `CC(=O)n1ccc2cc(C(=O)N[C@@H](Cc3ccccc3)C(=O)Nc3cc(C(=O)O)cc(C(=O)O)c3)c(C(=O)NCC34CC5CC(CC(C5)C3)C4)cc21` [Example 44, 5-(1S-(3,5-dicarboxyphenylaminocarbonyl)-2-phenylethylaminocarbonyl)-6-(1-adamantanemethylaminocarbonyl)-N-acetyl-indole], at gastrin, the “Gastrin pKB” value came to 8.7. The “CCKA pKi” value at CCKA is 5.6. On CCKB receptor, the “CCKB pKi” value was found to be 8.7.
On to `O=C(NCC12CC3CC(CC(C3)C1)C2)c1cc2[nH]ccc2cc1C(=O)N[C@@H](Cc1ccccc1)C(=O)Nc1cccc(-c2nn[nH]n2)c1` [Example 100, 5-(1S-(3-tetrazolylphenylaminocarbonyl)-2-phenylethylaminocarbonyl)-6-(1-adamantanemethylaminocarbonyl)-indole], for which the Kb at gastrin was 31.6 nM. Also, the Ki on CCKA was 398 nM; at CCKB receptor, 12.6 nM.
